Experimental data published in US9914910B2, “Methods of preserving and protecting pancreatic beta cells and treating or preventing diabetes by inhibiting NOX-1” (Eastern Virginia Medical School, priority 2013, dated 2018).

What was measured:
[1] = tested on: NOX-1 gene expression in beta cells; assay: Inflammatory cytokine-induced gene expression in beta cells; format: cell-based
Excerpt: Inflammatory cytokines (PIC; IFNγ, TNFα, IL-1β)) induce expression of NOX-1 and MCP-1 in beta cells. Elevated NOX-1 is associated with beta cell dysfunction and NOX-1 expression is associated with feed-forward generation of reactive oxygen species. […] Shown are fold increase, *p<0.05.
Feed-forward activation of NOX-1 can also be reduced with siRNA. Inflammatory cytokines (PIC; IFNγ, TNFα, IL-1β) induce the gene expression of NOX-1 that is further regulated in a feed-forward manner involving reactive oxygen species generated by NOX-1.
Compounds that inhibit interleukin-12, interleukin-23 and/or STAT4 signaling disrupt NOX-1 upregulation by inflammatory cytokines.

[2] = tested on: interleukin-12 and interleukin-23 production; settings: cited from earlier work
NOX-1 = biological target: T1, NOX-1 (Homo sapiens, UniProt Q9Y5S8); settings: cited from earlier work
T1 sequence (Q9Y5S8 1-564): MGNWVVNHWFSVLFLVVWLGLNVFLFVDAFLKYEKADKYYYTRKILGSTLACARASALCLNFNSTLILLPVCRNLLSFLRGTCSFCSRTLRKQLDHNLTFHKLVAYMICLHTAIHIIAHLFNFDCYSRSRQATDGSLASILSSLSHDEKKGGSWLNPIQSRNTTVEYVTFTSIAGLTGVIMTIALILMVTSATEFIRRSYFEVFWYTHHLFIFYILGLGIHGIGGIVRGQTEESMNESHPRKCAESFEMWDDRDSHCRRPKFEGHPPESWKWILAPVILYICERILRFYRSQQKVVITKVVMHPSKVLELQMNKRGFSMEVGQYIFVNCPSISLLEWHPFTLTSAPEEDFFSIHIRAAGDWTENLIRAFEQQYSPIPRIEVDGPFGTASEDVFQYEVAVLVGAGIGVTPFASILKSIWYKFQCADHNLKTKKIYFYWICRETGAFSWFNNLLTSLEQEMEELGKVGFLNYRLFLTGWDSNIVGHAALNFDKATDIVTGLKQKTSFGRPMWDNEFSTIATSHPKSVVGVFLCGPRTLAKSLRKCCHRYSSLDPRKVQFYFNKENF
T1 sequence (P13498 1-195 partner): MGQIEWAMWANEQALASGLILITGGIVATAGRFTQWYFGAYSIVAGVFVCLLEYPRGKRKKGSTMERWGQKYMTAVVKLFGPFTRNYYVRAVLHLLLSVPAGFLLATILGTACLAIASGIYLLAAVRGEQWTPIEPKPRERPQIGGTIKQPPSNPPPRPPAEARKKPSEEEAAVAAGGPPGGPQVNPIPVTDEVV

[3] = tested on: NOX-1 gene expression in primary mouse islets; assay: PIC-induced NOX-1 gene expression (RT-PCR); format: cell-based; settings: NCTT-1 100 nM, ML171 1 μM
Excerpt: Human donor islets were obtained from integrated islet distribution project (http://iidp.coh.org) and cultured in CMRL media (Mediatech, Manassas, Va.). Mouse islets were freshly isolated from 8-week old male C57BL/6J mice (Jackson Laboratory, Bar Harbor, Me.) by common bile duct cannulation and collagenase digestion. Islets were hand picked prior to use. […] Total RNA was isolated using the RNeasy Mini Kit (Qiagen, Valencia, Calif.) and cDNA prepared using MMLV reverse transcriptase (Life Technologies) and random hexamers (Life Technologies). Jump Start Taq polymerase (Life Technologies) was used in PCR reactions. Primers used with SYBR Green 1 (Molecular Probes, Carlsbad, Calif.) probes: […] GAPDH forward [NT] ID NO: 3); GAPDH reverse [NT] NO: 4). RT-PCR reactions were performed in triplicate (CFX96 Bio-Rad, Hercules, Calif.). Taqman primers (Life Technologies) were also used.

[4] = tested on: MCP-1, IL-12p40, IL-12 p35, IFNγ gene expression in primary mouse islets; assay: Cytokine-induced target gene expression (real time PCR); format: cell-based; settings: NCTT-1 100 nM, ML171 1 μM
Experimental: (§1) Total RNA was isolated using the RNeasy Mini Kit (Qiagen, Valencia, Calif.) and cDNA prepared using MMLV reverse transcriptase (Life Technologies) and random hexamers (Life Technologies). Jump Start Taq polymerase (Life Technologies) was used in PCR reactions. […] RT-PCR reactions were performed in triplicate (CFX96 Bio-Rad, Hercules, Calif.). Taqman primers (Life Technologies) were also used. Data was normalized to the housekeeping gene GAPDH and analyzed using the 2-ΔΔCT method.
Data is quantitative real time PCR gene expression analysis from triplicate experiments performed in replicate. Fold induction in gene expression over control (non cytokine-treated) islets is graphed.

[5] = tested on: MCP-1 expression in INS-1; assay: Cytokine-induced MCP-1 gene expression (real time PCR); format: cell-based, rat; settings: INS-1, 10 nM
Experimental: as §1
Data is quantitative real time PCR gene expression analysis from triplicate experiments performed in replicate.

beta cells [6] = assay: Pro-caspase 3 cleavage after PIC, beta cell survival; format: cell-based; settings: C1 100 nM, ML171 10 μM
Experimental: (§2) Loss of beta cell viability in response to inflammatory cytokines was assessed by measurement of caspase 3 activation and quantified microscopy. […] Measured by pro-caspase 3 cleavage (A) or quantified microscopy of YO-PRO-1 stained cells (B). […] Shown are RFU from fluorescent capase3 substrate, ##p<0.01 relative to control; *p<0.05; **p<0.01 relative to PIC (A) and Microscopic apoptotic index ###p<0.001 relative to control; ***p<0.001; **p<0.01 relative to PIC (B).

beta cells [7] = assay: Quantified microscopy of YO-PRO-1 stained cells after PIC; format: cell-based; settings: C1 100 nM, ML171 10 μM
Experimental: as §2

beta cells [8] = assay: Static glucose-stimulated-insulin-secretion after PIC; format: cell-based; settings: 100 nM, 3 mM vs 16 mM glucose
Experimental: Pyrazolopyridine dione compound class of dual selective NOX1/4 inhibitors were also evaluated on preservation of beta cell function and survival with concomitant exposure to inflammatory cytokines. Two NOX1/4 pyrazolopyridine dione compounds C1 and C2 (Methyl-2-phenyl-5-(2-pyridinylmethyl)-1H-pyrazolo[4,3-c]pyridine-3,6(2H,5H)-dione and 5-Benzyl-4-methyl-2-phenyl-1H-pyrazolo[4,3-c]pyridine-3,6(2H,5H)-dione, respectively) were assessed at 100 nM. […] Inflammatory cytokines (PIC; IFNγ, TNFα, IL-1β)) abolished this response. The glucose-stimulated-insulin-secretion response was preserved in the presence of inflammatory cytokines by pyrazolopyridine dione compounds C1 and C2. *p<0.05, **p<0.01.

[9] = mice, dosing 1000 mg/Kg per os; cited from earlier work

## Cc1cccc(/C=N/Nc2cc(N3CCOCC3)nc(OCCc3ccccn3)n2)c1 [STA 5326, 6-morpholino-N-((E)-m-tolylmethyleneamino)-2-(2-(2-pyridyl)ethoxy)pyrimidin-4-amine]
[1]; 1 μM
  induction of NOX-1 gene expression by inflammatory cytokines: inhibited
[2]
  interleukin-12 and interleukin-23 production: inhibits interleukin-12 and interleukin-23 production

## COc1cc(C(C)=O)ccc1O [apocynin]
NOX-1
  selectivity among NOX isotypes (in words): non-selective

## Cc1c2c(=O)n(-c3ccccc3)[nH]c2cc(=O)n1Cc1ccccn1 [NCTT-1]
[3]
  induction of gene NOX-1 by PIC: attenuated
[4]
  induction of gene IFNγ by PIC: attenuated
  induction of gene IL-12 p35 by PIC: attenuated
  induction of gene IL-12p40 by PIC: attenuated
  induction of gene MCP-1 by PIC: attenuated
[5]
  cytokine-induced MCP-1 expression: attenuated cytokine-induced MCP-1 expression

## Methyl-2-phenyl-5-(2-pyridinylmethyl)-1H-pyrazolo[4,3-c]pyridine-3,6(2H,5H)-dione [C1]
Beta cells [6]
  inflammatory cytokine-induced cell death, pro-caspase 3 cleavage: significantly protected
Beta cells [7]
  inflammatory cytokine-induced cell death, YO-PRO-1 microscopic apoptotic index: significantly protected
[1]
  inflammatory cytokine-induced gene expression (NOX-1 and MCP-1): dose-related inhibition
Beta cells [8]
  glucose-stimulated-insulin-secretion response with PIC: preserved

## c1ccc2c(c1)[I+]c1ccccc1-2 [diphenylene iodonium]
NOX-1
  selectivity among NOX isotypes (in words): non-selective

## Cc1c2c(=O)n(-c3ccccc3)[nH]c2cc(=O)n1Cc1ccccc1 [C2, 5-Benzyl-4-methyl-2-phenyl-1H-pyrazolo[4,3-c]pyridine-3,6(2H,5H)-dione]
[1]
  inflammatory cytokine-induced gene expression (NOX-1 and MCP-1): dose-related inhibition
Beta cells [8]
  glucose-stimulated-insulin-secretion response with PIC: preserved

## Cc1c2c(=O)n(-c3ccccc3Cl)[nH]c2cc(=O)n1Cc1ccccn1 [GKT-136901]
[9]
  tolerability: well tolerated
